From patent US12077503B2, “Substituted cyclic amides and their use as herbicides” (FMC CORPORATION, priority 2015, dated 2024)

How the values were obtained:
Format in all cases: in vivo
[1] = system: barnyardgrass (Echinochloa crus-galli); assay: Test G Pre-Emergence Protocol; conditions: Echinochloa crus-galli, pre-emergence, 312 h, evaluated after 13 days; for pest or weed control at 15.625 g/ha: 15.625 g ai/ha, read-out: Barnyard grass damage rating (100=total damage to plant; 0=no damage to plant); for pest or weed control at 62.5 g/ha: 62.5 g ai/ha, 100=total damage to plant, 0=no damage to plant, read-out: plant damage rating, Barnyardgrass; for pest or weed control at 250 g/ha: 250 g ai/ha, read-out: Barnyardgrass damage rating (100=total damage to plant; 0=no damage to plant)
How it was run: (§1)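 Pre-emergence spray, 15.625/62.5/250 g/ha, vehicle acetone:water 50:50 + 0.5% Tween 20, applied 1 d after sowing. Glasshouse 24/16° C, 14 h light, 65% RH, watered twice daily. Visual damage rating at 13 d, 0–100 scale.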

corn (Zea mays) [2] = assay: Test G Pre-Emergence Protocol; conditions: Zea mays, pre-emergence, 312 h, evaluated after 13 days; for plant injury at 15.625 g/ha: 15.625 g ai/ha; for plant injury at 15.625 g/ha / plant injury at 250 g/ha: read-out: Corn damage rating (100=total damage to plant; 0=no damage to plant); for plant injury at 62.5 g/ha: 62.5 g ai/ha, 100=total damage to plant, 0=no damage to plant, read-out: plant damage rating, Corn; for plant injury at 250 g/ha: 250 g ai/ha
How it was run: as §1

[3] = system: giant foxtail (Setaria faberi); assay: Test G Pre-Emergence Protocol; conditions: Setaria faberi, pre-emergence, 312 h, evaluated after 13 days; for pest or weed control at 15.625 g/ha: 15.625 g ai/ha; for pest or weed control at 15.625 g/ha / pest or weed control at 250 g/ha: read-out: Foxtail, Giant damage rating (100=total damage to plant; 0=no damage to plant); for pest or weed control at 62.5 g/ha: 62.5 g ai/ha, 100=total damage to plant, 0=no damage to plant, read-out: plant damage rating, Foxtail, Giant; for pest or weed control at 250 g/ha: 250 g ai/ha
How it was run: as §1

[4] = system: ivy-leaved morning glory (Ipomoea hederacea); assay: Test G Pre-Emergence Protocol; conditions: Ipomoea, pre-emergence, 312 h, evaluated after 13 days; for pest or weed control at 15.625 g/ha: 15.625 g ai/ha, read-out: Morning-glory, Ivy-leaved damage rating (100=total damage to plant; 0=no damage to plant); for pest or weed control at 62.5 g/ha: 62.5 g ai/ha, 100=total damage to plant, 0=no damage to plant, read-out: plant damage rating, Morningglory, Ivy-leaved; for pest or weed control at 250 g/ha: 250 g ai/ha, read-out: Morningglory, Ivy-leaved damage rating (100=total damage to plant; 0=no damage to plant)
How it was run: as §1

[5] = system: redroot pigweed (Amaranthus retroflexus); assay: Test G Pre-Emergence Protocol; conditions: Amaranthus retroflexus, pre-emergence, 312 h, evaluated after 13 days; for pest or weed control at 15.625 g/ha: 15.625 g ai/ha; for pest or weed control at 15.625 g/ha / pest or weed control at 250 g/ha: read-out: Pigweed, Redroot damage rating (100=total damage to plant; 0=no damage to plant); for pest or weed control at 62.5 g/ha: 62.5 g ai/ha, 100=total damage to plant, 0=no damage to plant, read-out: plant damage rating, Pigweed, Redroot; for pest or weed control at 250 g/ha: 250 g ai/ha
How it was run: as §1

[6] = system: velvetleaf (Abutilon theophrasti); assay: Test G Pre-Emergence Protocol; conditions: Abutilon theophrasti, pre-emergence, 312 h, evaluated after 13 days; for pest or weed control at 15.625 g/ha: 15.625 g ai/ha; for pest or weed control at 15.625 g/ha / pest or weed control at 250 g/ha: read-out: Velvetleaf damage rating (100=total damage to plant; 0=no damage to plant); for pest or weed control at 62.5 g/ha: 62.5 g ai/ha, 100=total damage to plant, 0=no damage to plant, read-out: plant damage rating, Velvetleaf; for pest or weed control at 250 g/ha: 250 g ai/ha
How it was run: as §1

[7] = system: barnyardgrass (Echinochloa crus-galli); assay: Test G Post-Emergence Protocol; conditions: Echinochloa crus-galli, post-emergence, 312 h; for pest or weed control at 15.625 g/ha: 15.625 g ai/ha, evaluated after 13 days (100=total damage to plant; 0=no damage to plant), read-out: Barnyardgrass damage rating; for pest or weed control at 62.5 g/ha: 62.5 g ai/ha, read-out: Barnyardgrass damage rating (100=total damage to plant; 0=no damage to plant); for pest or weed control at 62.5 g/ha / pest or weed control at 250 g/ha: evaluated after 13 days; for pest or weed control at 250 g/ha: 250 g ai/ha, read-out: damage to plant, Barnyardgrass (100=total damage to plant; 0=no damage to plant)
How it was run: (§2)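 Scores run 0 (no damage) to 100 (total damage) and were taken 13 days after spraying. Plants had been raised in pots for 8 days under glasshouse control (24/16 °C, 14 h photoperiod, 65% humidity) and then treated at 15.625, 62.5 or 250 g/ha.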

corn (Zea mays) [8] = assay: Test G Post-Emergence Protocol; conditions: Zea mays, post-emergence, 312 h; for plant injury at 15.625 g/ha: 15.625 g ai/ha, evaluated after 13 days (100=total damage to plant; 0=no damage to plant), read-out: Corn damage rating; for plant injury at 62.5 g/ha: 62.5 g ai/ha, read-out: Corn damage rating (100=total damage to plant; 0=no damage to plant); for plant injury at 62.5 g/ha / plant injury at 250 g/ha: evaluated after 13 days; for plant injury at 250 g/ha: 250 g ai/ha, read-out: damage to plant, Corn (100=total damage to plant; 0=no damage to plant)
How it was run: as §2

[9] = system: giant foxtail (Setaria faberi); assay: Test G Post-Emergence Protocol; conditions: Setaria faberi, post-emergence, 312 h; for pest or weed control at 15.625 g/ha: 15.625 g ai/ha, evaluated after 13 days (100=total damage to plant; 0=no damage to plant), read-out: Foxtail, Giant damage rating; for pest or weed control at 62.5 g/ha: 62.5 g ai/ha, read-out: Foxtail, Giant damage rating (100=total damage to plant; 0=no damage to plant); for pest or weed control at 62.5 g/ha / pest or weed control at 250 g/ha: evaluated after 13 days; for pest or weed control at 250 g/ha: 250 g ai/ha, read-out: damage to plant, Foxtail, Giant (100=total damage to plant; 0=no damage to plant)
How it was run: as §2

[10] = system: ivy-leaved morning glory (Ipomoea hederacea); assay: Test G Post-Emergence Protocol; conditions: Ipomoea, post-emergence, 312 h; for pest or weed control at 15.625 g/ha: 15.625 g ai/ha, evaluated after 13 days (100=total damage to plant; 0=no damage to plant), read-out: Morningglory, Ivy-leaved damage rating; for pest or weed control at 62.5 g/ha: 62.5 g ai/ha, read-out: Morningglory, Ivy-leaved damage rating (100=total damage to plant; 0=no damage to plant); for pest or weed control at 62.5 g/ha / pest or weed control at 250 g/ha: evaluated after 13 days; for pest or weed control at 250 g/ha: 250 g ai/ha, read-out: damage to plant, Morningglory, Ivy-leaved (100=total damage to plant; 0=no damage to plant)
How it was run: as §2

[11] = system: redroot pigweed (Amaranthus retroflexus); assay: Test G Post-Emergence Protocol; conditions: Amaranthus retroflexus, post-emergence, 312 h; for pest or weed control at 15.625 g/ha: 15.625 g ai/ha, evaluated after 13 days (100=total damage to plant; 0=no damage to plant), read-out: Pigweed, Redroot damage rating; for pest or weed control at 62.5 g/ha: 62.5 g ai/ha, read-out: Pigweed, Redroot damage rating (100=total damage to plant; 0=no damage to plant); for pest or weed control at 62.5 g/ha / pest or weed control at 250 g/ha: evaluated after 13 days; for pest or weed control at 250 g/ha: 250 g ai/ha, read-out: damage to plant, Pigweed, Redroot (100=total damage to plant; 0=no damage to plant)
How it was run: as §2

[12] = system: velvetleaf (Abutilon theophrasti); assay: Test G Post-Emergence Protocol; conditions: Abutilon theophrasti, post-emergence, 312 h; for pest or weed control at 15.625 g/ha: 15.625 g ai/ha, evaluated after 13 days (100=total damage to plant; 0=no damage to plant), read-out: Velvetleaf damage rating; for pest or weed control at 62.5 g/ha: 62.5 g ai/ha, read-out: Velvetleaf damage rating (100=total damage to plant; 0=no damage to plant); for pest or weed control at 62.5 g/ha / pest or weed control at 250 g/ha: evaluated after 13 days; for pest or weed control at 250 g/ha: 250 g ai/ha, read-out: damage to plant, Velvetleaf (100=total damage to plant; 0=no damage to plant)
How it was run: as §2

Compound	pest or weed control at 15.625 g/ha [1]	pest or weed control at 62.5 g/ha [1]	pest or weed control at 250 g/ha [1]	plant injury at 15.625 g/ha (corn (Zea mays) [2])	plant injury at 62.5 g/ha (corn (Zea mays) [2])	plant injury at 250 g/ha (corn (Zea mays) [2])	pest or weed control at 15.625 g/ha [3]	pest or weed control at 62.5 g/ha [3]	pest or weed control at 250 g/ha [3]	pest or weed control at 250 g/ha [4]	pest or weed control at 15.625 g/ha [5]	pest or weed control at 62.5 g/ha [5]	pest or weed control at 250 g/ha [5]	pest or weed control at 15.625 g/ha [6]	pest or weed control at 62.5 g/ha [6]	pest or weed control at 250 g/ha [6]	pest or weed control at 15.625 g/ha [7]	pest or weed control at 62.5 g/ha [7]	pest or weed control at 250 g/ha [7]	plant injury at 15.625 g/ha (corn (Zea mays) [8])	further results
CCc1nccc(NC(=O)[C@@H]2C(=O)N(C)C[C@H]2c2ccc(C(F)(F)F)cc2)c1Cl (racemic) [Compound 1538]	0%	30%	50%	0%	0%	0%	0%	20%	60%	70%	0%	0%	0%	0%	0%	0%	0%	0%	10%	0%	pest or weed control at 15.625 g/ha [4]: 0%; pest or weed control at 62.5 g/ha [4]: 0%; plant injury at 62.5 g/ha (corn (Zea mays) [8]): 0%; plant injury at 250 g/ha (corn (Zea mays) [8]): 10%; pest or weed control at 15.625 g/ha [9]: 10%; pest or weed control at 62.5 g/ha [9]: 30%; pest or weed control at 250 g/ha [9]: 50%; pest or weed control at 15.625 g/ha [10]: 0%; pest or weed control at 62.5 g/ha [10]: 0%; pest or weed control at 250 g/ha [10]: 0%; pest or weed control at 15.625 g/ha [11]: 0%; pest or weed control at 62.5 g/ha [11]: 0%; pest or weed control at 250 g/ha [11]: 0%; pest or weed control at 15.625 g/ha [12]: 0%; pest or weed control at 62.5 g/ha [12]: 0%; pest or weed control at 250 g/ha [12]: 0%
CSc1nc(NC(=O)[C@@H]2C(=O)N(C)C[C@H]2c2ccc(C(F)(F)F)cc2)n[nH]1 (racemic) [Compound 1539]	0%	10%	20%	0%	0%	0%	0%	10%	20%	0%	0%	0%	0%	0%	0%	0%	0%	0%	0%	0%	pest or weed control at 15.625 g/ha [4]: 0%; plant injury at 62.5 g/ha (corn (Zea mays) [8]): 0%; plant injury at 250 g/ha (corn (Zea mays) [8]): 0%; pest or weed control at 15.625 g/ha [9]: 0%; pest or weed control at 62.5 g/ha [9]: 0%; pest or weed control at 250 g/ha [9]: 0%; pest or weed control at 15.625 g/ha [10]: 0%; pest or weed control at 62.5 g/ha [10]: 0%; pest or weed control at 250 g/ha [10]: 0%; pest or weed control at 15.625 g/ha [11]: 0%; pest or weed control at 62.5 g/ha [11]: 0%; pest or weed control at 250 g/ha [11]: 0%; pest or weed control at 15.625 g/ha [12]: 0%; pest or weed control at 62.5 g/ha [12]: 0%; pest or weed control at 250 g/ha [12]: 0%
CN1C[C@@H](c2ccc(C(F)(F)F)cc2)[C@H](C(=O)Nc2cc(C(C)(C)C)[nH]n2)C1=O (racemic) [Compound 1545]	0%	0%	0%	0%	0%	0%	0%	0%	0%	0%	0%	0%	0%	0%	0%	0%	0%	0%	0%	0%	pest or weed control at 62.5 g/ha [4]: 0%; plant injury at 62.5 g/ha (corn (Zea mays) [8]): 0%; plant injury at 250 g/ha (corn (Zea mays) [8]): 0%; pest or weed control at 15.625 g/ha [9]: 0%; pest or weed control at 62.5 g/ha [9]: 0%; pest or weed control at 250 g/ha [9]: 0%; pest or weed control at 15.625 g/ha [10]: 0%; pest or weed control at 62.5 g/ha [10]: 0%; pest or weed control at 250 g/ha [10]: 0%; pest or weed control at 15.625 g/ha [11]: 0%; pest or weed control at 62.5 g/ha [11]: 0%; pest or weed control at 250 g/ha [11]: 0%; pest or weed control at 15.625 g/ha [12]: 0%; pest or weed control at 62.5 g/ha [12]: 0%; pest or weed control at 250 g/ha [12]: 0%
